Laboratory results: patent publication US20260200849A1, “CATIONIC LIPIDS AND PREPARATION METHOD THEREOF” (RiboX Therapeutics HK Limited, priority 2024, published 2026)
Where “and” joins values, the source holds several entries; their conditions need not be identical. Equal entries are not always repeated. Where two headings read alike, the source gives them in different places.

Tests used:
[1] = RNA encapsulation efficacy (EE %) by Quant-IT Ribogreen kit; assay type: physicochemical; details: LNP
Description: (§1) The LNP size and polydispersity index (PDI), determined by dynamic light scattering (DLS), and zeta potential were measured by a Zetasizer machine (Malvern). RNA concentration and encapsulation efficacy (EE %) were analyzed by the Quant-IT Ribogreen kit by calculating the percentage encapsulation at 100%—(RNA-LNPs/RNA-LNPs with Triton X-100).

[2] = tested on: IL-6; assay: In vivo tolerability by IV: serum IL-6 by Luminex; set-up: species or system C57BL/6J mice; details: IV 1.0 mg/kg, male C57BL/6J mice N=3, Formulation 001, RNA 331
Description: (§2) 6-8 week old, male C57BL/6J mice (N=3) were injected with 1.0 mg*kg/1 of RNA-LNPs encoding for firefly-luciferase by intravenous injection. At 2- and 24-hours post injection, about 40 μL blood was harvested and immediately added to the procoagulant containing tube. Stand for 30 min at room temperature and then centrifuged at 2500 g×10 min to obtain serum. About 15 μL serum samples were aliquoted for cytokine (MCP-1 and IL-6) detection by Luminex (ProcartaPlex Mouse 2-plex, Thermo). PBS group as negative control.
as §2, with “mg*kg−1” for “mg*kg/1”

[3] = tested on: C57BL/6J mice; assay: In vivo expression by IV, 1.0 mg/kg luciferase RNA-LNPs, whole-body and organ IVIS luminescence; details: IV 1.0 mg/kg, 24 h post injection, male C57BL/6J mice N=3, Formulation 001, RNA 331
Description: (§3) 6-8 week old, male C57BL/6J mice (N=3) were injected with 1.0 mg*kg−1 of RNA-LNPs encoding for firefly-luciferase by intravenous injection. At 24-hours post injection, animals were intraperitoneally injected with 15 mg/ml of Luciferin substrate and whole-body/liver/spleen/kidney/small intestine/large intestine luminescence were determined by a bioluminescent in vivo imaging system (IVIS).
as §3, with “mg/nil” for “mg/ml”

[4] = tested on: Balb/c mice; assay: In vivo expression by IV, 0.05 mg/kg luciferase RNA-LNPs, IVIS luminescence; details: IV 0.05 mg/kg, 24 h post injection, female Balb/c mice N=3, Formulation 001, RNA 331
Description: (§4) 7-8 week old, female Balb/c mice (N=3) were injected with 0.05 mg*kg−1 of RNA-LNPs encoding for firefly-luciferase by intravenous injection. At 24- and 72-hours post injection, animals were intraperitoneally injected with 15 mg/mi of Luciferin substrate and whole-body luminescence was determined by a bioluminescent in vivo imaging system (IVIS).
as §4, with “24-hours” for “24- and 72-hours”, “mg/ml” for “mg/mi”, “whole-body/liver/spleen” for “whole-body”

[5] = tested on: MCP-1; assay: In vivo tolerability by IV: serum MCP-1 by Luminex; set-up: species or system C57BL/6J mice; details: IV 1.0 mg/kg, male C57BL/6J mice N=3, Formulation 001, RNA 331
Description: as §2
as §2, with “mg*kg−1” for “mg*kg/1”

[6] = LNP size and polydispersity index (PDI) by dynamic light scattering (Zetasizer); assay type: physicochemical; details: for Size (nm): Formulation No. 001 (Ionizable lipid:DSPC:cholesterol:DMG-PEG2000 = 50:10:38.5:1.5, N/P 6), RNA No. 331
Description: as §1

[7] = In vivo lipid metabolism by IV: ionizable lipid concentration in plasma and liver by LC-MS/MS; set-up: species or system Sprague-Dawley (SD) rats; details: IV 0.15 mg/kg RNA-LNPs (hEPO), male SD rats, individual animals N=3
Description: In Vivo Lipid Metabolism by IV 7-8 week old, male Sprague-Dawley (SD) rats (N=3) were injected with 0.15 mg*kg−1 of RNA-LNPs encoding for hEPO by intravenous injection. At 1-/6-/96-/168-hours post injection, about 100 μL blood will be harvested and immediately added to the EDTAK2 containing tube. Place on wet ice and then centrifuged at 3000 g×5 min to obtain plasma. 30 μL plasma will be aliquoted to the 1.5 mL tubes. At terminal 6-/168-hours post injection, the rats will be euthanized with CO2, hemorrhaged immediately with cardiac puncture, respectively. The livers were harvested, weighed and washed with saline, then put into 50 ml centrifuge tube placed in liquid nitrogen, then transferred into wet ice, and finally stored at −80° C. immediately. Both plasma and liver samples were used for ionizable lipid concentration quantification by LC-MS/MS. The lower limit of quantitation (LLOQ) is 1 ng/mL in plasma or 11 ng/g in liver. BQL—Below the lower limit of quantitation (LLOQ).

[8] = Formulation No. 001, RNA No. 331
[9] = Formulation No. 001, RNA No. 019 (hEPO)
[10] = male, Sprague-Dawley, rat, liver, iv, 0.15 mg/kg, 6 h post injection, read-out: Liver (ng/g), ionizable lipid concentration
[11] = male, Sprague-Dawley, rat, plasma, iv, 0.15 mg/kg, 1 h post injection
[12] = male, Sprague-Dawley, rat, plasma, iv, 0.15 mg/kg, 6 h post injection, read-out: Plasma (ng/mL), ionizable lipid concentration

| SMILES | EE (%) [1, 8] [%] | IL-6 at 2 h [2] [pg/mL] | IL-6 at 24 h [2] [pg/mL] | Kidney (p/s) [3] [p/s] | Large intestine (p/s) [3] [p/s] | Liver (p/s) [3] [p/s] | Small intestine (p/s) [3] [p/s] | Spleen (p/s) [3] [p/s] | Whole body (p/s) [3] [p/s] | Liver (p/s) (Mean) [4] | Spleen (p/s) (Mean) [4] | Whole body (p/s) (Mean) [4] | MCP-1 at 2 h [5] [pg/mL] | MCP-1 at 24 h [5] [pg/mL] | PDI [6, 8] | Size [6, 8] [nm] | EE (%) [1, 9] [%] | Plasma (ng/mL), ionizable lipid concentration ([7]; 1 h post injection) | Liver (ng/g), ionizable lipid concentration ([7]; 6 h post injection) | Plasma (ng/mL), ionizable lipid concentration ([7]; 6 h post injection) | also measured |
| --- | --- | --- | --- | --- | --- | --- | --- | --- | --- | --- | --- | --- | --- | --- | --- | --- | --- | --- | --- | --- | --- |
| CCCCCCCCCCC(CCCCCCCC)COC(=O)CCCCCOC(=O)NC(COC(=O)NCCN(C)C)C(=O)OCCCCCC(=O)OCC(CCCCCCCC)CCCCCCCCCC (centres unmarked) [Lipid 1017] | 97.70 | 12.8 | 0.792 | 9.00E+06 | 2.09E+07 | 9.32E+08 | 1.93E+08 | 4.32E+08 | 1.13E+09 | 3.91E+07 | 1.30E+07 | 2.45E+08 | 2430 | 94.6 | 0.07 | 69.70 | – | – | – | – | – |
| CCCCCCCCCCC(CCCCCCCC)COC(=O)CCCCCOC(=O)NC(COC(=O)NCCN1CCCC1)C(=O)OCCCCCC(=O)OCC(CCCCCCCC)CCCCCCCCCC (centres unmarked) [Lipid 1019] | 97.11 | 404 | 2.02 | 1.46E+07 | 2.12E+08 | 1.20E+09 | 5.41E+08 | 4.98E+08 | 2.49E+09 | 3.60E+07 | 2.21E+07 | 2.46E+08 | 3720 | 401 | 0.10 | 68.78 | – | – | – | – | – |
| CCCCCCCCCCC(CCCCCCCC)COC(=O)CCCCCOC(=O)NC(COC(=O)NCCN1CCCCC1)C(=O)OCCCCCC(=O)OCC(CCCCCCCC)CCCCCCCCCC (centres unmarked) [Lipid 1020] | 94.34 | 90.5 | 1.07 | 5.29E+07 | 2.16E+08 | 1.90E+10 | 1.62E+09 | 1.14E+09 | 9.25E+09 | 1.38E+08 | 2.67E+07 | 4.91E+08 | 1930 | 180 | 0.01 | 57.55 | 97.29 | 2412 ng/mL and 2622 ng/mL | 38824 ng/g and 43259 ng/g | 1241 ng/mL and 1471 ng/mL | Plasma (ng/mL), ionizable lipid concentration ([7]; 96 h post injection): 31.2 ng/mL and 26.1 ng/mL; Liver (ng/g), ionizable lipid concentration ([7]; 168 h post injection): 2432 ng/g and 1960 ng/g; Plasma (ng/mL), ionizable lipid concentration ([7]; 168 h post injection): 7.35 ng/mL and 11.3 ng/mL and 4.48 ng/mL; concentration at 6 h [7, 10]: 36500 ng/g; concentration at 168 h ([7]; male, Sprague-Dawley, rat, liver, iv, 0.15 mg/kg, 168 h post injection, read-out: Liver (ng/g), ionizable lipid concentration): 2890 ng/g; concentration at 1 h [7, 11]: 2420 ng/mL; concentration at 6 h [7, 12]: 1210 ng/mL; concentration at 96 h ([7]; male, Sprague-Dawley, rat, plasma, iv, 0.15 mg/kg, 96 h post injection): 33.6 ng/mL; PDI [6, 9]: 0.06; Size [6, 9]: 55.95 nm |
| CCCCCCCCCCC(CCCCCCCC)COC(=O)CCCCCOC(=O)NC(COC(=O)NCCN1CCCCCC1)C(=O)OCCCCCC(=O)OCC(CCCCCCCC)CCCCCCCCCC (centres unmarked) [Lipid 1021] | 93.55 | 28.6 | 0.639 | 5.69E+07 | 1.91E+08 | 1.88E+10 | 1.60E+09 | 6.45E+08 | 1.48E+10 | 1.19E+08 | 5.32E+07 | 8.26E+08 | 1560 | 166 | 0.05 | 57.55 | 96.60 | 2558 ng/mL and 2938 ng/mL | 33582 ng/g and 37570 ng/g | 976 ng/mL and 1347 ng/mL | Plasma (ng/mL), ionizable lipid concentration ([7]; 96 h post injection): 23.9 ng/mL and 5.16 ng/mL and 9.41 ng/mL; Liver (ng/g), ionizable lipid concentration ([7]; 168 h post injection): 3103 ng/g and 1228 ng/g and 1508 ng/g; Plasma (ng/mL), ionizable lipid concentration ([7]; 168 h post injection): 6.98 ng/mL and 1.89 ng/mL; concentration at 6 h [7, 10]: 48100 ng/g; concentration at 1 h [7, 11]: 3280 ng/mL; concentration at 6 h [7, 12]: 1480 ng/mL; PDI [6, 9]: 0.04; Size [6, 9]: 57.55 nm |
| CCCCCCCC/C=C\CCCCCCCCOC(=O)NC(COC(=O)NCCN1CCCCCC1)C(=O)OCCCCCC(=O)OCC(CCCCCCCC)CCCCCCCCCC (centres unmarked) [Lipid 1041] | 90.29 | 51.2 | 4.53 | 6.14E+06 | 1.74E+07 | 1.08E+09 | 1.96E+08 | 1.93E+08 | 8.03E+08 | – | – | – | 1180 | 68.1 | 0.08 | – | – | – | – | – | Size (nm) [6]: 59.33 nm |
| CCCCCCCCCCC(CCCCCCCC)COC(=O)CCCCCOC(=O)NC(COC(=O)NCCN1CCCCCC1)C(=O)OCCCCCCCC(=O)OC(CCCCCCCC)CCCCCCCC (centres unmarked) [Lipid 1072] | 96.51 | 2.07 | 0.947 | 8.41E+06 | 1.22E+07 | 1.40E+10 | 2.07E+08 | 1.95E+08 | 6.81E+09 | – | – | – | 554 | 35.1 | 0.04 | – | – | – | – | – | Size (nm) [6]: 52.67 nm |
